{
  "source": "patent US7501281B2",
  "about": "“Compositions, methods and kits related to thrombin, Notch signaling and stamatogenesis and growth of stem cells” (Maine Medical Center Research Institute, priority 2003, dated 2009)",
  "assay_type_in_all_cases": "cell-based, murine",
  "key": {"[1]": {"test_system": "Notch-dependent CSL1 activity in full-length Jagged1 NIH 3T3 cell transfectants", "experiment": "Dual Luciferase Reporter Assay of CSL1-dependent transcription"}, "[2]": {"test_system": "Swiss 3T3 cells expressing a dominant-negative FGFR1 mutant", "experiment": "DNA synthesis assay, (3H)-thymidine autoradiography", "settings": "10 ng/ml FGF1 plus 10 units/ml heparin", "method": "A combination of (^3H)-thymidine autoradiography and immunohistochemistry was used to evaluate the levels of DNA synthesis in Swiss 3T3 cells expressing a dominant-negative FGFR1 mutant. Swiss 3T3 cells were plated at 50% confluency on glass coverslips precoated with fibronectin (10 μg/cm^2) for 24 hours. The cells were transfected with the pCS2 vector expressing a dominant-negative X. laevis FGFR1 deletion mutant lacking the FGFR1 intracellular domain (a gift from Dr. R. Friesel) using the Fugene 6 reagent (Roche). After 24 hours, the medium was changed to DMEM containing 0.25% BCS and following a 48 hour incubation in low BCS, the cells were stimulated with either 10 μg/ml of α-thrombin, 10% BCS or 10 ng/ml of recombinant FGF1 plus 10 units/ml of heparin. After stimulation for 24 hours, (^3H)-thymidine (NEN; 1 μCi/ml) was added to the medium and cells were incubated for 12 hours and fixed with 4% neutral formaldehyde. […] The percentage of (^3H)-labeled nuclei among the dnFGFR1-positive and dnFGFR1-negative cells was quantitated using an inverted Olympus microscope.\nThus, a dominant-negative (dn) FGFR1 construct was expressed in Swiss 3T3 cells and their proliferative index measured in the presence and absence of exogenous thrombin."}, "[3]": {"test_system": "NIH 3T3 stable transfectants", "experiment": "Analysis of FGF1-induced spheroid formation", "settings": "for spheroid formation: 10 ng/ml FGF1, 10 U/ml heparin", "method": "Clonal populations of NIH 3T3 stable transfectants were resuspended and grown in media containing 10% BCS, 10% BCS containing 1 μM PD166866, 10% BCS containing 10 ng/ml recombinant human FGF1 and 10 U/ml heparin or 10% BCS containing 10 ng/ml recombinant human FGF1, 10 U/ml heparin and 1 μM PD166866 as indicated in the figure legend. Approximately 2×10^5 cells were plated per well (6-well dish) and three days after plating, phase-contrast micrographs of the cells were taken."}, "[4]": {"test_system": "NIH 3T3 stable transfectants", "experiment": "Colony formation in soft agar", "settings": "for effect on colonies in soft agar: 10 ng/ml FGF1", "method": "Clonal populations of NIH 3T3 cells stably transfected with vector control, soluble Jagged1 (sJ1), constitutively active Notch1 (caN1), constitutively active Notch2 (caN2), dominant negative Notch 1 (dnN1), dominant negative Notch 2 (dnN2), an oncogenic mutant of FGF1 engineered with the FGF4 signal peptide sequence (hst-β (FGF4):FGF1), or constitutively active oncogenic Ras construct (caRas), were plated on 6 cm tissue culture dishes with 0.5% agar in an overlay containing DMEM (Gibco BRL) media, 10% bovine calf serum (BCS; Hyclone), and 0.33% agar at 1.5×10^3 cells/dish. As indicated, some dishes were also treated with 1 μM of the FGFR1-specific inhibitor, PD166866 (Panek et al., 1998, J. Pharmacol. Exp. Ther. 286: 569-577) and/or 10 ng/ml recombinant human FGF1 and 10 U/ml heparin (Sigma). Cells were fed with 0.5 ml of media with or without FGF1 and/or the FGFR1-specific inhibitor every 3 days as indicated. Twenty days after plating, colonies were stained with p-iodonitrotetrazolium violet (Sigma) for visualization. Quantitation of colony formation was achieved by counting all p-iodonitrotetrazolium violet-stained colonies consisting of more than 4 cells under a Zeiss Stemi SVII Apo dissecting microscope."}, "[5]": {"test_system": "caN1/CSL transcription in NIH 3T3 transfectants", "experiment": "Transient transfection assay of CSL-regulated transcription", "settings": "1, 2.5, 5 or 10 ng/ml FGF1", "method": "NIH 3T3 cells were plated onto fibronectin-coated (10 μg/cm2) 12-well tissue culture dishes and transiently transfected at approximately 80% confluency with 500 ng of a Luciferase construct activated by 4 tandem copies of the CSL (CBF1) response element (Hsieh et al. 1996, Mol. Cell. Biol. 16: 952-959), 100 ng of the TK Renilla (Promega) construct as an internal control for transfection efficiency, and 500 ng of either vector control, sJ1 or caN1 constructs using Fugene 6 (Roche) per manufacturer's instructions. For analysis of caN1 activity in the background of NIH 3T3 stable lines, vector control, caN1, sJ1 and hst-β(FGF4):FGF1 stable transfectants were plated onto fibronectin-coated (10 μg/cm2) 12-well tissue culture dishes and transiently transfected with 500 ng of the CSL-Luciferase construct, 100 ng of the TK Renilla (Promega) construct as an internal control for transfection efficiency, and 200 ng of caN1. […] The cells were harvested 48 hours after the media change and Luciferase/Renilla activity was measured using Promega's Dual-Luciferase Reporter Assay System. The efficiency of transcription was measured and normalized in relationship to the activity of pRL-TK Renilla and the activity is reported as the ratio of Luciferase/Renilla activity. […]"}, "[6]": {"test_system": "Jagged1 in NIH 3T3 stable transfectants", "experiment": "Immunoblot analysis of Jagged1 expression", "settings": "10 ng/ml FGF1 and 10 U/ml heparin; all stable lines examined", "method": "Vector control, SJ1, CaN1, J1, Hstβ(FGF4):FGF1 and sJ1:caN1 stable NIH 3T3 cell transfectants were plated on tissue culture dishes in either normal growth media (DMEM (Gibco BRL) media, 10% bovine calf serum (BCS; Hyclone)) or normal growth media containing 10 ng/ml recombinant FGF1 and 10 U/ml heparin. Cells were harvested at confluency (based on status of vector control cells grown in normal growth media).\nBecause hst-β(FGF4):FGF1 stable transfectants and the sJ1 transfectants grown in FGF1-containing media form spheroids, all cells were harvested by scraping in the presence of the growth media dn then the cells/growth media was collected into sterile 15 ml conical tubes. Cells were pelleted by centrifugation at 800×g for 5′ at 4° C. After centrifugation, the supernatant was removed and the cell pellets were washed 3× with 1×PBS. Cells were lysed in 500 μl in 20 mM tris, pH 7.5 containing 300 mM sucrose, 60 mM KCl, 15 mM NaCl, 0.5 mM EDTA, 0.5% (v/v) Triton X-100 1 mM Phenymethyl sulfonyl flouride, 0.1% SDS, 2 μg/ml aprotinin, 10 μg/ml aprotinin, 10 μg/ml leupeptin, and 1 mM sodium orthovanadate for 15 minutes on ice. Cell lysates were pelleted and the supernatant containing soluble proteins removed.\nSamples were normalized to protein concentration using the BCA Protein Assay Kit (Pierce). […]"}},
  "data": [
    {"compound": "FGF1: recombinant human fibroblast growth factor 1, added with heparin", "values": [
      {"measurement": "CSL1-dependent transcription, of the control level", "setting": "[1]; 10 ng/ml exogenous FGF1", "result": "approximately 25%"},
      {"measurement": "reduction by dnFGFR1 expression of the ability to induce replicating nuclei", "setting": "[2]", "result": "approximately 70%"},
      {"measurement": "spheroid formation", "setting": "[3]; Notch-repressed cells (sJ1, dnN1)", "result": "formed multicellular, spheroid-like structures"},
      {"measurement": "spheroid formation", "setting": "[3]; vector control and caN1 transfectants", "result": "did not form spheroids"},
      {"measurement": "effect on colonies in soft agar", "setting": "[4]; caN1 and vector control transfectants", "result": "either no effect or only resulted in the formation of sparse and very small colonies"},
      {"measurement": "effect on colonies in soft agar", "setting": "[4]; sJ1 and dnN1 transfectants", "result": "greatly exaggerated the size of the colonies"},
      {"measurement": "effect on caN1/CSL transcription", "setting": "[5]", "result": "repressed caN1/CSL transcription in a dose-dependent fashion"},
      {"measurement": "effect on Jagged1 expression", "setting": "[6]", "result": "increased Jagged1 expression"}
    ]},
    {"compound": "heparin [reference compound]", "values": [
      {"measurement": "effect of heparin on thrombin-dependent repression of CSL1-dependent transcription", "setting": "[1]; heparin 5 units/ml with thrombin 10 μg/ml", "result": "able to potentiate"},
      {"measurement": "effect on CSL1-dependent transcription", "setting": "[1]; heparin by itself", "result": "ineffective"},
      {"measurement": "effect on CSL1-dependent transcription", "setting": "[1]; heparin in the presence of 10 μM TRAP", "result": "ineffective"}
    ]},
    {"compound": "COc1cc(OC)cc(-c2cc3cnc(N)nc3nc2NC(=O)NC(C)(C)C)c1", "note": "[PD166866]", "values": [
      {"measurement": "effect on FGF1-induced spheroid formation", "setting": "[3]; 1 μM PD166866, sJ1, dnN1 and hst-β (FGF4):FGF1 stable transfectants", "result": "completely abolished"},
      {"measurement": "effect on colony formation", "setting": "[4]; 1 μM PD166866, caRas cells", "result": "no effect"},
      {"measurement": "effect on FGF1-mediated colony formation", "setting": "[4]; 1 μM PD166866, sJ1, dnN1 and hst-β (FGF4):FGF1 transfectants", "result": "substantially reduced"},
      {"measurement": "effect on small colony growth", "setting": "[4]; 1 μM PD166866, sJ1 and dnN1 in the absence of FGF1", "result": "inhibited"}
    ]}
  ]
}
